pIC50: −log10 of the molar value. “Also recorded” adds a separate entry of the source. One block for each compound: values may come before it. Square brackets hold non-standard residues; d marks the D form. Peptide text beside a SMILES is read from it. * marks the point of attachment. Phe(F5) = N[C@@H](Cc1c(F)c(F)c(F)c(F)c1F)C(=O)O; Desaminotyrosyl = O=C(CCc1ccc(O)cc1)*; NMeY = CN[C@@H](Cc1ccc(O)cc1)C(=O)O; hArg = N=C(N)NCCCC[C@H](N)C(=O)O; Agmatine = N=C(N)NCCCCN*; Nle = CCCC[C@H](N)C(=O)O; Orn = NCCC[C@H](N)C(=O)O; Abu = CC[C@H](N)C(=O)O; Aoc = NCCCCCCCC(=O)O; GABA = NCCCC(=O)O
Legend:
[1] = target: T1, GHRH receptor (Homo sapiens, UniProt Q02643); assay: GHRH receptor binding, [His1,125I-Tyr10,Nle27]hGHRH(1-32)NH2 ligand competition, human pituitary membrane homogenates (Table 6); settings: for pIC50: [His1,125I-Tyr10,Nle27]hGHRH(1-32)NH2, human pituitary membranes
T1 construct: Normal human pituitaries were purchased from the National Hormone and Peptide Program; tissue National Hormone and Peptide Program (A. F. Parlow); host or cells: normal human pituitary, membrane fraction
T1 sequence (Q02643 23-423): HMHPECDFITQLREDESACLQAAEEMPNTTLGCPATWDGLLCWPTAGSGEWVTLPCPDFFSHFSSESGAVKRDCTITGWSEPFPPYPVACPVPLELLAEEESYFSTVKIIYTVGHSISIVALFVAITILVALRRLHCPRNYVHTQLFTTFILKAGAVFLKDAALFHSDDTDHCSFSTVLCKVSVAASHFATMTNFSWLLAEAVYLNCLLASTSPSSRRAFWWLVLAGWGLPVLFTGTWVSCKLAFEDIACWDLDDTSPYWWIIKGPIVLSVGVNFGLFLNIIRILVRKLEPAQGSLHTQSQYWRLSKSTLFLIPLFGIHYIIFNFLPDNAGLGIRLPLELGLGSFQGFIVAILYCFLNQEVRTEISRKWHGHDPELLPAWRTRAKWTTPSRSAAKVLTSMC
Procedure: (§1) Receptor binding assay Ligand competition assay with ^125I-labeled [His^1, Nle^27]hGH-RH(1-32)-NH2 was used to determine the binding affinities of the novel hGH-RH agonists to membrane receptors of rat anterior pituitary cells. The methods used have been described in detail (Halmos G, et al. Receptor 3: 87-97, 1993), here by incorporated by reference. Briefly, radioidonated [His^1, Nle^27]hGH-RH(1-32)-NH2 is prepared by the chloramines-T method. […] IC50 is the dose of the tested peptides causing 50% inhibition of specific binding to receptors.
(§2) Preparation of human pituitary membrane fraction and receptor binding of GHRH agonists were performed as previously described, by using a sensitive in vitro ligand competition assay based on binding of ^125I-labeled [His^1, Nle^27]hGHRH(1-32)NH2 to human pituitary membrane homogenates. Normal human pituitaries were purchased from the National Hormone and Peptide Program (A. F. Parlow, Los Angeles, County Harbor—UCLA Medical Center, Torrance, Calif.).

[2] = target: T1, GHRH receptor; assay: GHRH receptor binding, 125I-labeled JV-1-42 ligand competition, human pituitary membrane homogenates (Table 5)
Procedure: as §1
as §2, with “JV-1-42” for “[His^1, Nle^27]hGHRH(1-32)NH2”, “Harbor-UCLA” for “Harbor—UCLA”, “Calif.). Briefly, in competitive binding analysis, ^125I-labeled JV-1-42 (˜0.2 nM) was displaced by GHRH agonists at 10^−6 to 10^−12 M.” for “Calif.).”
The final binding affinities were expressed as IC50 values and were calculated by using the LIGAND PC computerized curve-fitting program of Munson and Rodbard as modified by McPherson.

[3] = target: T1, GHRH receptor; assay: GHRH receptor binding, 125I-labeled JV-1-42 ligand competition, human pituitary membrane homogenates (Table 7); settings: 125I-labeled JV-1-42, human pituitary membranes
Procedure: as §2, with “JV-1-42” for “[His^1, Nle^27]hGHRH(1-32)NH2”, “Harbor-UCLA” for “Harbor—UCLA”

[4] = system: GH release; assay: In vivo GH release after intravenous administration; settings: rat, i.v.
Procedure: The blood samples are centrifuged, plasma is removed and the GH level is measured by ELISA.

[5] = system: GH release; assay: In vivo GH release after subcutaneous administration; settings: rat, s.c.
Procedure: Blood samples are taken from the jugular vein; 5, 15 and 30 minutes or only 15 and 30 minutes after the injection. The blood samples are centrifuged, plasma is removed and the GH level is measured by ELISA. The results are summarized in terms of potency in Table 9.

[6] = given subcutaneously twice a day; cited from earlier work

Compound: CCCC[C@H](NC(=O)[C@@H](NC(=O)[C@H](CC(=O)O)NC(=O)[C@H](CCC(N)=O)NC(=O)[C@H](CC(C)C)NC(=O)[C@H](CC(C)C)NC(=O)[C@H](CCCN)NC(=O)[C@H](CCCNC(=N)N)NC(=O)[C@H](C)NC(=O)[C@H](CO)NC(=O)[C@H](CC(C)C)NC(=O)[C@H](CCC(N)=O)NC(=O)[C@H](CC)NC(=O)[C@H](CC(C)C)NC(=O)[C@@H](NC(=O)[C@H](CCCN)NC(=O)[C@H](CCCNC(=N)N)NC(=O)[C@H](Cc1ccc(O)cc1)NC(=O)[C@H](CO)NC(=O)[C@@H](NC(=O)[C@@H](NC(=O)[C@H](Cc1ccccc1)NC(=O)[C@@H](NC(=O)[C@H](C)NC(=O)[C@H](CC(=O)O)NC(=O)[C@H](C)NC(=O)CCc1ccc(O)cc1)[C@@H](C)CC)[C@@H](C)O)[C@@H](C)O)C(C)C)[C@@H](C)CC)C(=O)N[C@@H](CC(=O)O)C(=O)NCCCCNC(=N)N [JI-36, reference compound] (Desaminotyrosyl-ADAIFTTSYR[Orn]VL[Abu]QLSAR[Orn]LLQDI[Nle]D-Agmatine; N-terminus and C-terminus assumed)
pIC50 [1]: 8.74

Compound: CCCC[C@H](NC(=O)[C@@H](NC(=O)[C@H](CC(=O)O)NC(=O)[C@H](CCC(N)=O)NC(=O)[C@H](CC(C)C)NC(=O)[C@H](CC(C)C)NC(=O)[C@H](CCCN)NC(=O)[C@H](CCCNC(=N)N)NC(=O)[C@H](C)NC(=O)[C@H](CO)NC(=O)[C@H](CC(C)C)NC(=O)[C@H](CCC(N)=O)NC(=O)[C@H](CC)NC(=O)[C@H](CC(C)C)NC(=O)[C@@H](NC(=O)[C@H](CCCN)NC(=O)[C@H](CCCNC(=N)N)NC(=O)[C@H](Cc1ccc(O)cc1)NC(=O)[C@H](CO)NC(=O)[C@H](CC(N)=O)NC(=O)[C@@H](NC(=O)[C@H](Cc1ccccc1)NC(=O)[C@@H](NC(=O)[C@H](C)NC(=O)[C@H](CC(=O)O)NC(=O)[C@H](C)NC(=O)CCc1ccc(O)cc1)[C@@H](C)CC)[C@@H](C)O)C(C)C)[C@@H](C)CC)C(=O)N[C@@H](CC(=O)O)C(=O)NCCCCNC(=N)N [JI-34, reference compound] (Desaminotyrosyl-ADAIFTNSYR[Orn]VL[Abu]QLSAR[Orn]LLQDI[Nle]D-Agmatine; N-terminus and C-terminus assumed)
pIC50 [1]: 8.86

pIC50 ([2]; 125I-labeled JV-1-42, human pituitary membranes): 10.15
pIC50 [3]: 9.48
Compound: CCCC[C@H](NC(=O)[C@@H](NC(=O)[C@H](CC(=O)O)NC(=O)[C@H](CCC(N)=O)NC(=O)[C@H](CC(C)C)NC(=O)[C@H](CC(C)C)NC(=O)[C@H](CCCN)NC(=O)[C@H](CCCNC(=N)N)NC(=O)[C@H](C)NC(=O)[C@H](CO)NC(=O)[C@H](CC(C)C)NC(=O)[C@H](CCC(N)=O)NC(=O)[C@H](CC)NC(=O)[C@H](CC(C)C)NC(=O)[C@@H](NC(=O)[C@H](CCCN)NC(=O)[C@H](CCCNC(=N)N)NC(=O)[C@H](Cc1ccc(O)cc1)NC(=O)[C@H](CO)NC(=O)[C@H](CC(N)=O)NC(=O)[C@@H](NC(=O)[C@H](Cc1c(F)c(F)c(F)c(F)c1F)NC(=O)[C@@H](NC(=O)[C@H](C)NC(=O)[C@H](CC(=O)O)NC(=O)[C@@H](C)NC(=O)CCc1ccc(O)cc1)[C@@H](C)CC)[C@@H](C)O)C(C)C)[C@@H](C)CC)C(=O)N[C@@H](CO)C(=O)N[C@@H](CCCNC(=N)N)C(=O)NCCCC(N)=O [Peptide P-25502, [Dat^1, D-Ala^2, Fpa5^6, Orn^12, Abu^15, Orn^21, Nle^27, Gab^30]hGH-RH(1-30)NH2] (Desaminotyrosyl-[dA]DAI[Phe(F5)]TNSYR[Orn]VL[Abu]QLSAR[Orn]LLQDI[Nle]SR[GABA]-NH2)
GH response after intravenous administration (in words) [4]: most potent
GH response after subcutaneous administration (in words) [5]: unusually high responses; also recorded: especially greater growth hormone levels than hGH-RH or JI-38

pIC50 [1]: 10.10
Compound: CCCC[C@H](NC(=O)[C@@H](NC(=O)[C@H](CC(=O)O)NC(=O)[C@H](CCC(N)=O)NC(=O)[C@H](CC(C)C)NC(=O)[C@H](CC(C)C)NC(=O)[C@H](CCCN)NC(=O)[C@H](CCCNC(=N)N)NC(=O)[C@H](C)NC(=O)[C@H](CO)NC(=O)[C@H](CC(C)C)NC(=O)[C@H](CCC(N)=O)NC(=O)[C@H](CC)NC(=O)[C@H](CC(C)C)NC(=O)[C@@H](NC(=O)[C@H](CCCN)NC(=O)[C@H](CCCNC(=N)N)NC(=O)[C@H](Cc1ccc(O)cc1)NC(=O)[C@H](CO)NC(=O)[C@H](CCC(N)=O)NC(=O)[C@@H](NC(=O)[C@H](Cc1ccccc1)NC(=O)[C@@H](NC(=O)[C@H](C)NC(=O)[C@H](CC(=O)O)NC(=O)[C@@H](C)NC(=O)CCc1ccc(O)cc1)[C@@H](C)CC)[C@@H](C)O)C(C)C)[C@@H](C)CC)C(=O)N[C@@H](CC(=O)O)C(=O)N[C@@H](CCCNC(=N)N)C(=O)NCCCCCCCC(N)=O [Peptide P-21304, [Dat^1, D-Ala^2, Gln^8, Orn^12, Abu^15, Orn^21, Nle^27, Asp^28, Amc^30]hGH-RH(1-30)NH2] (Desaminotyrosyl-[dA]DAIFTQSYR[Orn]VL[Abu]QLSAR[Orn]LLQDI[Nle]DR[Aoc]-NH2)

pIC50 [1]: 10.40
Compound: CCCC[C@H](NC(=O)[C@@H](NC(=O)[C@H](CC(=O)O)NC(=O)[C@H](CCC(N)=O)NC(=O)[C@H](CC(C)C)NC(=O)[C@H](CC(C)C)NC(=O)[C@H](CCCN)NC(=O)[C@H](CCCNC(=N)N)NC(=O)[C@H](C)NC(=O)[C@H](CO)NC(=O)[C@H](CC(C)C)NC(=O)[C@H](CCC(N)=O)NC(=O)[C@H](CC)NC(=O)[C@H](CC(C)C)NC(=O)[C@@H](NC(=O)[C@H](CCCN)NC(=O)[C@H](CCCNC(=N)N)NC(=O)[C@H](Cc1ccc(O)cc1)NC(=O)[C@H](CO)NC(=O)[C@H](C)NC(=O)[C@@H](NC(=O)[C@H](Cc1ccccc1)NC(=O)[C@@H](NC(=O)[C@H](C)NC(=O)[C@H](CC(=O)O)NC(=O)[C@@H](C)NC(=O)CCc1ccc(O)cc1)[C@@H](C)CC)[C@@H](C)O)C(C)C)[C@@H](C)CC)C(=O)N[C@@H](CC(=O)O)C(=O)N[C@@H](CCCNC(=N)N)C(=O)N[C@@H](CCCCNC(=N)N)C(N)=O [Peptide P-23256, [Dat^1, D-Ala^2, Ala^8, Orn^12, Abu^15, Orn^21, Nle^27, Asp^28, Har^30]hGH-RH(1-30)NH2] (Desaminotyrosyl-[dA]DAIFTASYR[Orn]VL[Abu]QLSAR[Orn]LLQDI[Nle]DR[hArg]-NH2)

pIC50 [3]: 9.80
Compound: CCCC[C@H](NC(=O)[C@@H](NC(=O)[C@H](CC(=O)O)NC(=O)[C@H](CCC(N)=O)NC(=O)[C@H](CC(C)C)NC(=O)[C@H](CC(C)C)NC(=O)[C@H](CCCN)NC(=O)[C@H](CCCNC(=N)N)NC(=O)[C@H](C)NC(=O)[C@H](CO)NC(=O)[C@H](CC(C)C)NC(=O)[C@H](CCC(N)=O)NC(=O)[C@H](CC)NC(=O)[C@H](CC(C)C)NC(=O)[C@@H](NC(=O)[C@H](CCCN)NC(=O)[C@H](CCCNC(=N)N)NC(=O)[C@H](Cc1ccc(O)cc1)NC(=O)[C@H](CO)NC(=O)[C@H](CCC(N)=O)NC(=O)[C@@H](NC(=O)[C@H](Cc1ccccc1)NC(=O)[C@@H](NC(=O)[C@H](C)NC(=O)[C@H](CC(=O)O)NC(=O)[C@@H](C)NC(=O)[C@H](Cc1ccc(O)cc1)NC)[C@@H](C)CC)[C@@H](C)O)C(C)C)[C@@H](C)CC)C(=O)N[C@@H](CC(=O)O)C(=O)N[C@@H](CCCNC(=N)N)C(=O)NC [Peptide P-27403, [N—Me-Tyr^1, D-Ala^2, Gln^8, Orn^12, Abu^15, Orn^21, Nle^27, Asp^28]hGH-RH(1-29)NH—CH3] (H-[NMeY][dA]DAIFTQSYR[Orn]VL[Abu]QLSAR[Orn]LLQDI[Nle]DR-NHMe)
GH response after intravenous administration (in words) [4]: most potent
GH response after subcutaneous administration (in words) [5]: unusually high responses; also recorded: especially greater growth hormone levels than hGH-RH or JI-38

Relative affinity (Binding potency) vs GHRH ([2]; relative to GHRH(1-29) = 1): 1
Relative affinity (Binding potency) vs GHRH ([1]; relative to GHRH(1-29) = 1): 1
Compound: hGH-RH(1-29)NH2 [GHRH (1-29), reference compound]
share of GH-deficient children in whom linear growth was promoted [6]: approximately 50%
